According to patent publication US11440907B1 (Merck Patent GmbH, priority 2018, dated 2022):

How the values were obtained:
Type in all cases: cell-based
[1] = test system: XBP1(u)-luciferase splicing reporter in HepG2 hepatoma cells; experiment: HepG2 XBP1 reporter assay (XBP1(u)-Luc); details: Homo sapiens, 6 hours after compound addition; for EC50: Table 3, read-out: XBP1-luc HepG2 1 EC50; for IC50: Table 4
[2] = test system: intracellular calcium flux in Colo-205 cells; experiment: Calcium flux assay (FLIPR Calcium 5 Assay Kit, FLIPR3); details: Homo sapiens, 0.6 h, calcium flux measured over 36 minutes, read-out: Colo 205 Calcium Flux assay 384w Boston Ca assay FLIPR3 Colo EC50
Description: Compounds described herein induced ER stress by causing intracellular calcium flux. Calcium flux was measured in Colo-205 cells using the FLIPR® Calcium 5 Assay Kit according to manufacturer's protocol (Molecular Devices, Cat. #R8186) on a FLIPR3 system (Molecular Devices). Calcium flux is measured over 36 minutes. The Colo-205 calcium flux assay data are summarized in Table 3: A<0.6 μM; 0.6 μM≤B<2.0 μM; 2.0 μM≤C<10.0 μM; D≥10.0 μM.

[3] = test system: β-catenin-TCF-mediated reporter transcription activity in Colo 205 cells; experiment: Colo 205 reporter assay (TCF/LEF promoter-driven firefly luciferase); details: Homo sapiens; Colo 205 TCF/LEF luciferase reporter, 5 hours after compound addition, 384 well; read-out: Colo205 IC50
[4] = test system: NCI-H929 (Multiple myeloma cells); experiment: Cell viability (ATPLite) in NCI-H929; details: Homo sapiens, 96 hours
Description: (§1) Cells were removed from liquid nitrogen storage, thawed and expanded in appropriate growth media. Once expanded, cells were seeded in 384-well tissue culture treated plates at 500 cells per well. After 24 hours, cells were treated for either 0 hours or treated for 96 hours with a testing compound (at the concentrations of 100 nM and 2 uM). At the end of either 0 hours or 96 hours, cell status was analyzed using ATPLite (Perkin Elmer) to assess the biological response of cells to the testing compound.

[5] = test system: DU4475 (breast cancer cells); experiment: Cell viability (ATPLite) in DU4475; details: Homo sapiens, DU-4475, 96 hours
Description: as §1

SMILES	EC50 [1] [nM]	EC50 [2] [nM]	IC50 [3] [nM]	IC50 [4] [nM]	IC50 [1] [nM]	IC50 [5] [nM]
Cc1cc(N2CCCOC[C@@H]2c2ccc(N(C)C3COC3)cc2Cl)nc(N)n1 (single isomer, unassigned) [I-190]	< 600	< 600	< 300			
Cc1cc(N2CCCOC[C@@H]2c2cc3nccn3cc2Cl)nc(N)n1 (single isomer, unassigned) [I-221, 4-[3-(6-chloroimidazo[1,2-a]pyridin-7-yl)-1,4-oxazepan-4-yl]-6-methyl-pyrimidin-2-amine]	< 600	< 600	< 300			
Cc1cc(N2CCCOC[C@@H]2c2ccc(CS(C)(=O)=O)cc2Cl)nc(N)n1 (single isomer, unassigned) [I-224]	< 600	< 600	< 300			
Cc1cc(N2CCCOCC2c2cc3c(cc2Cl)NCC3)nc(N)n1 (centres unmarked) [C-1]				< 1000	< 600	< 1000
Cc1cc(N2CCCOCC2c2cc(F)c(C)cc2Cl)nc(N)n1 (centres unmarked) [C-2]				1000 to 10000	600 to 2000	1000 to 10000
Cc1cc(N2CCCOCC2c2cc(F)c(-c3cccnc3)cc2Cl)nc(N)n1 (centres unmarked) [C-33]				1000 to 10000		1000 to 10000
Cc1cc(N2CCCOCC2c2cc3c(cc2Cl)CCN3)nc(N)n1 (centres unmarked) [C-37]				< 1000		< 1000
COc1cc(Cl)ccc1C1CCCCCN1c1cc(C)nc(N)n1 (centres unmarked) [I-20, 4-(2-(4-chloro-2-methoxyphenyl)azepan-1-yl)-6-methylpyrimidin-2-amine]	600 to 2000	600 to 2000	300 to 1000			
COc1ccc(Cl)cc1C1CCCCCN1c1cc(C)nc(N)n1 (centres unmarked) [I-21, 4-(2-(5-chloro-2-methoxyphenyl)azepan-1-yl)-6-methylpyrimidin-2-amine]	2000 to 5000	600 to 2000	300 to 1000			
COc1cc(F)ccc1C1CCCCCN1c1cc(C)nc(N)n1 (centres unmarked) [I-22, 4-(2-(4-fluoro-2-methoxyphenyl)azepan-1-yl)-6-methylpyrimidin-2-amine]	600 to 2000	< 600	300 to 1000			
CCS(=O)(=O)c1ccc([C@H]2COCCCN2c2cc(C)nc(N)n2)c(Cl)c1 [I-183, 4-(3-(2-chloro-4-(ethylsulfonyl)phenyl)-1,4-oxazepan-4-yl)-6-methylpyrimidin-2-amine]	< 600	< 600	300 to 1000			
Cc1cc(N2CCCOC[C@@H]2c2ccc(N3CCOCC3)cc2Cl)nc(N)n1 [I-216, 4-[(3S)-3-(2-chloro-4-morpholino-phenyl)-1,4-oxazepan-4-yl]-6-methyl-pyrimidin-2-amine]	< 600	< 600	< 300			
COC1CN(c2ccc([C@H]3COCCCN3c3cc(C)nc(N)n3)c(Cl)c2)C1 [I-217, 4-[(3S)-3-[2-chloro-4-(3-methoxyazetidin-1-yl)phenyl]-1,4-oxazepan-4-yl]-6-methyl-pyrimidin-2-amine]	< 600	< 600	< 300			
COC1CCN(c2ccc([C@H]3COCCCN3c3cc(C)nc(N)n3)c(Cl)c2)C1 (stereo partly drawn) [I-218, 4-[(3S)-3-[2-chloro-4-(3-methoxypyrrolidin-1-yl)phenyl]-1,4-oxazepan-4-yl]-6-methyl-pyrimidin-2-amine]	< 600	< 600	< 300			
Cc1cc(N2CCCOC[C@@H]2c2ccc(N3CCC4(CCOC4)C3)cc2Cl)nc(N)n1 (stereo partly drawn) [I-219, 4-[(3S)-3-[2-chloro-4-(2-oxa-7-azaspiro[4.4]nonan-7-yl)phenyl]-1,4-oxazepan-4-yl]-6-methyl-pyrimidin-2-amine]	< 600	< 600	300 to 1000			
Cc1cc(N2CCCOC[C@@H]2c2ccc(N3CC4COCC4C3)cc2Cl)nc(N)n1 (stereo partly drawn) [I-220, 4-[(3S)-3-[4-(1,3,3a,4,6,6a-hexahydrofuro[3,4-c]pyrrol-5-yl)-2-chloro-phenyl]-1,4-oxazepan-4-yl]-6-methyl-pyrimidin-2-amine]	< 600	< 600	< 300			
Cc1cc(N2CCCOCC2c2ccc(S(=O)(=O)C3CCC3)cc2Cl)nc(N)n1 (centres unmarked) [I-222, 4-(3-(2-chloro-4-(cyclobutylsulfonyl)phenyl)-1,4-oxazepan-4-yl)-6-methylpyrimidin-2-amine]	600 to 2000	< 600	300 to 1000			
COc1ccc(F)cc1[C@H]1COCCCN1c1cc(C)nc(N)n1 [I-288]	2000 to 5000	< 600	< 300			
CCS(=O)(=O)c1ccc(C2COCCCN2c2cc(C)nc(N)n2)c(Cl)c1 (centres unmarked) [I-297]	< 600	< 600	300 to 1000			
Cc1cc(N2CCCOCC2c2cc(-n3cccc3)ccc2Cl)nc(N)n1 (centres unmarked) [I-300]	600 to 2000	< 600	300 to 1000			
Cc1cc(N2CCCOCC2c2cc(N3CCCC3)ccc2Cl)nc(N)n1 (centres unmarked) [I-304]	600 to 2000	< 600	300 to 1000			
Cc1nc(N)nc2c1-c1c(NC3COC3)ccc(Cl)c1C1COCCCN21 (centres unmarked) [I-309]	< 600	< 600	< 300			

Second part, the compound after the results:

EC50 [1] [nM]	EC50 [2] [nM]	IC50 [3] [nM]	IC50 [4] [nM]	IC50 [1] [nM]	IC50 [5] [nM]	SMILES
< 600	< 600	< 300				CNc1ccc(Cl)c([C@H]2COCCCN2c2cc(C)nc(N)n2)c1 (single isomer, unassigned) [I-178, 4-[3-[2-chloro-5-(methylamino)phenyl]-1,4-oxazepan-4-yl]-6-methyl-pyrimidin-2-amine]
< 600	< 600	< 300				Cc1cc(N2CCCOC[C@H]2c2ccc(NS(C)(=O)=O)cc2Cl)nc(N)n1 (single isomer, unassigned) [I-179, N-[4-[4-(2-amino-6-methyl-pyrimidin-4-yl)-1,4-oxazepan-3-yl]-3-chloro-phenyl]methanesulfonamide]
< 600	< 600	300 to 1000				Cc1cc(N2CCCOC[C@@H]2c2ccc(NC(=O)C3(O)CC3)cc2Cl)nc(N)n1 (single isomer, unassigned) [I-197]
< 600	< 600	< 300				CCC(=O)Nc1ccc([C@H]2COCCCN2c2cc(C)nc(N)n2)c(Cl)c1 (single isomer, unassigned) [I-204]
< 600	< 600	< 300				Cc1cc(N2CCCOC[C@@H]2c2ccc(NC(=O)C3CC3)cc2Cl)nc(N)n1 (single isomer, unassigned) [I-207]
			1000 to 10000	600 to 2000	1000 to 10000	Cc1cc(N2CCCOCC2c2cc(Cl)c(C)cc2Cl)nc(N)n1 (centres unmarked) [C-3]
			≥ 25000		≥ 25000	Cc1cc(N2CCCOCC2c2cc(O)c(O)cc2Cl)nc(N)n1 (centres unmarked) [C-22]
			≥ 25000		≥ 25000	Cc1cc(N2CCCOC[C@H]2c2ccc(S(C)(=O)=O)cc2Cl)nc(N)n1 [C-155]
< 600	< 600	< 300				CC(=O)Nc1ccc(Cl)c([C@@H]2COCCCN2c2cc(C)nc(N)n2)c1 [I-92]
2000 to 5000	< 600	300 to 1000				CNC(=O)c1ccc([C@H]2COCCCN2c2cc(C)nc(N)n2)c(Cl)c1 [I-150, (S)-4-(4-(2-amino-6-methylpyrimidin-4-yl)-1,4-oxazepan-3-yl)-3-chloro-N-methylbenzamide]
< 600	< 600	< 300				CNC(=O)c1ccc(Cl)c([C@@H]2COCCCN2c2cc(C)nc(N)n2)c1 [I-181]
600 to 2000	< 600	< 300				Cc1cc(N2CCCOC[C@H]2c2ccc(C(N)=O)cc2Cl)nc(N)n1 [I-188]
2000 to 5000	< 600	300 to 1000				Cc1cc(N2CCCOC[C@@H]2c2ccc(P(C)(C)=O)cc2Cl)nc(N)n1 [I-214, 4-[3-(2-chloro-4-dimethylphosphoryl-phenyl)-1,4-oxazepan-4-yl]-6-methyl-pyrimidin-2-amine]
< 600	< 600	< 300				Cc1cc(N2CCCOC[C@@H]2c2ccc(NC3COC3)cc2Cl)nc(N)n1 [I-215, 4-[(3S)-3-[2-chloro-4-(oxetan-3-ylamino)phenyl]-1,4-oxazepan-4-yl]-6-methyl-pyrimidin-2-amine]
600 to 2000	< 600	300 to 1000				Cc1cc(N2CCCOCC2c2cc(Br)ccc2Cl)nc(N)n1 (centres unmarked) [I-295]
2000 to 5000	< 600	< 300				Cc1cc(N2CCCOCC2c2ccc(C(N)=O)cc2Cl)nc(N)n1 (centres unmarked) [I-298]
600 to 2000	< 600	300 to 1000				C=C(C)c1ccc(C2COCCCN2c2cc(C)nc(N)n2)c(Cl)c1 (centres unmarked) [I-299]
< 600	< 600	300 to 1000				Cc1cc(N2CCCOCC2c2ccc(NC(=O)C3(O)CC3)cc2Cl)nc(N)n1 (centres unmarked) [I-303]
< 600	< 600	300 to 1000				Cc1cc(N2CCCOCC2c2ccc(NC(=O)C3CC3)cc2Cl)nc(N)n1 (centres unmarked) [I-305]
< 600	< 600	300 to 1000				CCC(=O)Nc1ccc(C2COCCCN2c2cc(C)nc(N)n2)c(Cl)c1 (centres unmarked) [I-306]
